# Columns and labels:
# m4 receptors = assay: cAMP formation in CHO m4 cells treated with pertussis toxin; assay type: cell-based
# Description: Muscarinic agonists stimulate the formation of cAMP up to 10 fold in CHO m4 cells treated with pertussisi toxin and the pharmacology is consistent with the mediation by m4 receptors. Eckols K. Soc. Neurosci Abstr., 21:2040 (1995).
# [1] = biological target: T1, m2 receptors in brain stem (Rattus norvegicus, UniProt P10980); assay: 3H-guinuclidinyl benzilate binding to m2 receptors in brain stem
# T1 sequence (P10980 1-466): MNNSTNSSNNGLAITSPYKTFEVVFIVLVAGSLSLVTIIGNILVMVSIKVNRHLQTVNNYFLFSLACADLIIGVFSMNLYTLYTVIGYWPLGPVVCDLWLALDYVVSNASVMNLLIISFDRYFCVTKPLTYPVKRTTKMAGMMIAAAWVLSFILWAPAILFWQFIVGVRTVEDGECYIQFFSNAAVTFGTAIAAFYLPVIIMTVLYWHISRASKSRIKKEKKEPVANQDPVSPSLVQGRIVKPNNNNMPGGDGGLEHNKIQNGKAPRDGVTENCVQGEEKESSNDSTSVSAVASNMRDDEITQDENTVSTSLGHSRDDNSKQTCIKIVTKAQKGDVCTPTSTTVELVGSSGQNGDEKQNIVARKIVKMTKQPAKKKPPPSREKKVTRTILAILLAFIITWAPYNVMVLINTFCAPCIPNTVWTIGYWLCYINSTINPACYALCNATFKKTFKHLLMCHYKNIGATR
compound,measurement,setting,value
"CCCCCCOc1nsnc1C1=CCCN(C)C1 [Xanomeline, 3-(4-hexyloxy-1,2,5-thiadiazol-3-yl)-1,2,5,6-tetrahydro-1-methylpyridine]",stimulation of the formation of cAMP,m4 receptors,efficaciously and potently stimulated the formation of cAMP
same,Ki,[1],24 nM
